Test system: Trypanosoma cruzi trypomastigote
Assay: Antiparasitic activity against Trypanosoma cruzi trypomastigote (viability by mobility under optical microscope)
Type: cell-based
Conditions: LLC-MK2, trypomastigotes from infected LLCMK2 cells, 1×10^7 parasites/mL, 24 h at 37° C.
Procedure: Antiparasitic Activity Against Trypanosoma cruzi
To evaluate antiparasitic activity against Trypanosoma cruzi trypomastigote, parasites were obtained from the supernatant of infected LLCMK2 cells. Trypomastigote (1×10^7 parasites/mL) was resuspended in DMEM supplemented with 10% FBS. The parasites were incubated in the presence of a compound at 500, 200, 100, 50, 10, 5, 1, 0.5, and 0.25 μM in 96-well plates for 24 h at 37° C. with 5% CO2. After incubation, the viability of the parasites was determined by examining mobility under an optical microscope. See, e.g., Brener, Rev. Inst. Med. Trop. São Paulo. 1962, 4, 389-96.

EC50: 2.3 ± 0.3 µM
Compound: Cc1cc(=O)c2occoc=2c1=O [Compound A1, 6-methylbenzo[b][1,4]dioxine-5,8-dione]

— patent US20250059153A1, “BICYCLIC QUINONES, PHARMACEUTICAL COMPOSITIONS, AND THERAPEUTIC APPLICATIONS” (priority 2022, published 2025)
